Measured values from patent US6706663B2, “Herbicidal 3-heterocyclic substituted benzisothiazole and benzisoxazole compounds” (Wyeth, priority 2000, dated 2004).

Assays:
[1] = system: SAGPY (Sagittaria pygmaea); test: Flooded paddy, preemergence weed control; assay type: in vivo, L.; conditions: rated 3-4 weeks after treatment, 0-9 rating scale
In short: (§1)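 Visual 0-9 rating versus control, scoring stand, vigor, malformation, size, chlorosis and overall appearance. Silt loam soil, propagules in top 0.5 cm; flood depth 1.5–3 cm held for the whole test; greenhouse.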

[2] = system: CHEAL (Chenopodium album); test: Preemergence herbicidal evaluation; assay type: in vivo, L.; conditions: preemergence, rated 4-5 weeks after treatment
In short: (§2)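 Each species was sown separately in potting soil over roughly one inch of soil, and the surface sprayed with compound dissolved in aqueous acetone. Assessment used a 0–9 visual scale against a control after four to five weeks.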

[3] = system: AMBEL (Ambrosia artemisifolia); test: Preemergence herbicidal evaluation; assay type: in vivo, L.; conditions: preemergence, rated 4-5 weeks after treatment
In short: as §2

[4] = system: CASOB (Cassia obtusifolia); test: Preemergence herbicidal evaluation; assay type: in vivo, L.; conditions: preemergence, rated 4-5 weeks after treatment
In short: as §2

SETVI (Setaria viridis) [5] = test: Preemergence herbicidal evaluation; assay type: in vivo, (L.) Beau; conditions: preemergence, rated 4-5 weeks after treatment
In short: as §2

[6] = system: ECHCG (Echinochloa crus-galli); test: Preemergence herbicidal evaluation; assay type: in vivo, (L.) Beau; conditions: preemergence, rated 4-5 weeks after treatment
In short: as §2

[7] = system: MOOVA (Monochoria vaginalis); test: Flooded paddy, preemergence weed control; assay type: in vivo, Presl.; conditions: rated 3-4 weeks after treatment, 0-9 rating scale
In short: as §1

GALAP (Galium aparine) = test: Postemergence herbicidal evaluation; assay type: in vivo
In short: (§3)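 Seedlings grown for about two weeks were sprayed postemergence and then kept under standard greenhouse care. Injury was rated visually 4–5 weeks after treatment on a 0–9 scale against untreated controls, and ratings from repeat tests were averaged.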

ORYSAT (Rice, Tebonnet) [8] = test: Postemergence herbicidal evaluation; assay type: in vivo, Oryza sativa, (L.) Tebonnet
In short: as §3

ORYSAT (Rice, Tebonnet) [9] = test: Preemergence herbicidal evaluation; assay type: in vivo, Oryza sativa, (L.) Tebonnet; conditions: preemergence, rated 4-5 weeks after treatment
ORYSAT (Rice, Tebonnet) [10] = test: Flooded paddy, post-transplant rice tolerance; assay type: in vivo, Oryza sativa, (L.) Tebonnet; conditions: flooded paddy, post-transplant rice, rated 3-4 weeks after treatment, 0-9 rating scale
In short: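 Visual 0-9 rating against a control, covering stand, vigor, malformation, size, chlorosis and overall appearance. Treatment was applied after transplanting paired ten-day-old seedlings into flooded silt loam, with water kept 1.5 to 3 cm deep on greenhouse benches.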

[11] = system: ABUTH (Abutilon theophrasti); test: Postemergence herbicidal evaluation; assay type: in vivo, Medic.
In short: as §3

CYPIR (Cyperus iria) = test: Flooded paddy, preemergence weed control; assay type: in vivo; conditions: rated 3-4 weeks after treatment, 0-9 rating scale
In short: as §1

SETVI (Setaria viridis) [12] = test: Postemergence herbicidal evaluation; assay type: in vivo, (L.) Beau
In short: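 First, seedlings are raised in flats for about two weeks. Next, compound dispersed in 50/50 acetone/water with 0.5% TWEEN 20 is sprayed at 40 psi to deliver about 0.0040–1.000 kg/ha. Plants are then maintained in the greenhouse and rated 0-9 after four to five weeks.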

ZEAMX (Corn, Field) = test: Postemergence herbicidal evaluation; assay type: in vivo, Zea mays, L.
In short: as §3

[13] = system: IPOHE (Ipomoea hederacea); test: Preemergence herbicidal evaluation; assay type: in vivo, (L.) Jacq.; conditions: preemergence, rated 4-5 weeks after treatment
[14] = system: IPOHE (Ipomoea hederacea); test: Postemergence herbicidal evaluation; assay type: in vivo, (L.) Jacq.
In short: as §3

[15] = system: ECHCG (Echinochloa crus-galli); test: Postemergence herbicidal evaluation; assay type: in vivo, (L.) Beau
In short: as §3

[16] = system: GLXMAW (Soybean, Williams); test: Postemergence herbicidal evaluation; assay type: in vivo, Glycine max, (L.) Merr. cv Williams
In short: as §3

[17] = system: ECHORC (Echinochloa oryzoides); test: Flooded paddy, preemergence weed control; assay type: in vivo, Echinochloa oryzoides (Ard.) Fritsch.; conditions: rated 3-4 weeks after treatment, 0-9 rating scale
In short: as §1

Compound: CC1CCOC(c2nsc3ccc(-n4c(=O)cc(C(F)(F)F)n(C)c4=O)cc23)O1 (stereo not drawn) [Compound 37, 1-methyl-3-[3-(4-methyl-m-dioxan-2-yl)-1,2-benzisothiazol-5-yl]-6-(trifluoromethyl)uracil]
- herbicidal rating, SAGPY ([1]; rate 0.0080 kg/ha): 0.0
- herbicidal rating, SAGPY ([1]; rate 0.0320 kg/ha): 7.0
- herbicidal rating, SAGPY ([1]; rate 0.1250 kg/ha): 9.0
- CHEAL preemergence herbicidal rating ([2]; Rate 0.0620 kg/ha): 9.0
- CHEAL preemergence herbicidal rating ([2]; Rate 0.1250 kg/ha): 9.0
- CHEAL preemergence herbicidal rating ([2]; Rate 0.2500 kg/ha): 9.0
- AMBEL preemergence herbicidal rating ([3]; Rate 0.0620 kg/ha): 9.0
- AMBEL preemergence herbicidal rating ([3]; Rate 0.1250 kg/ha): 9.0
- AMBEL preemergence herbicidal rating ([3]; Rate 0.2500 kg/ha): 9.0
- CASOB preemergence herbicidal rating ([4]; Rate 0.0620 kg/ha): 7.0
- CASOB preemergence herbicidal rating ([4]; Rate 0.1250 kg/ha): 8.0
- CASOB preemergence herbicidal rating ([4]; Rate 0.2500 kg/ha): 9.0
- SETVI preemergence herbicidal rating (SETVI (Setaria viridis) [5]; Rate 0.0620 kg/ha): 9.0
- SETVI preemergence herbicidal rating (SETVI (Setaria viridis) [5]; Rate 0.1250 kg/ha): 9.0
- SETVI preemergence herbicidal rating (SETVI (Setaria viridis) [5]; Rate 0.2500 kg/ha): 9.0
- ECHCG preemergence herbicidal rating ([6]; Rate 0.0620 kg/ha): 9.0
- ECHCG preemergence herbicidal rating ([6]; Rate 0.1250 kg/ha): 9.0
- ECHCG preemergence herbicidal rating ([6]; Rate 0.2500 kg/ha): 9.0
- herbicidal rating, MOOVA ([7]; rate 0.0080 kg/ha): 3.0
- herbicidal rating, MOOVA ([7]; rate 0.0320 kg/ha): 9.0
- Postemergence herbicidal rating, GALAP (GALAP (Galium aparine); rate 0.0320 kg/ha): 4.0
- Postemergence herbicidal rating, GALAP (GALAP (Galium aparine); rate 0.0620 kg/ha): 4.0
- Postemergence herbicidal rating, ORYSAT (ORYSAT (Rice, Tebonnet) [8]; rate 0.0320 kg/ha): 4.5
- Postemergence herbicidal rating, ORYSAT (ORYSAT (Rice, Tebonnet) [8]; rate 0.0620 kg/ha): 5.0
- ORYSAT preemergence herbicidal rating (ORYSAT (Rice, Tebonnet) [9]; Rate 0.0620 kg/ha): 9.0
- ORYSAT preemergence herbicidal rating (ORYSAT (Rice, Tebonnet) [9]; Rate 0.1250 kg/ha): 9.0
- ORYSAT preemergence herbicidal rating (ORYSAT (Rice, Tebonnet) [9]; Rate 0.2500 kg/ha): 9.0
- herbicidal rating, ORYSAT (rice tolerance) (ORYSAT (Rice, Tebonnet) [10]; rate 0.0080 kg/ha): 5.0
- herbicidal rating, ORYSAT (rice tolerance) (ORYSAT (Rice, Tebonnet) [10]; rate 0.0320 kg/ha): 8.5
- herbicidal rating, ORYSAT (rice tolerance) (ORYSAT (Rice, Tebonnet) [10]; rate 0.1250 kg/ha): 9.0
- Postemergence herbicidal rating, ABUTH ([11]; rate 0.0320 kg/ha): 9.0
- Postemergence herbicidal rating, ABUTH ([11]; rate 0.0620 kg/ha): 9.0
- herbicidal rating, CYPIR (CYPIR (Cyperus iria); rate 0.0080 kg/ha): 0.0
- herbicidal rating, CYPIR (CYPIR (Cyperus iria); rate 0.0320 kg/ha): 9.0
- herbicidal rating, CYPIR (CYPIR (Cyperus iria); rate 0.1250 kg/ha): 9.0
- Postemergence herbicidal rating, SETVI (SETVI (Setaria viridis) [12]; rate 0.0320 kg/ha): 9.0
- Postemergence herbicidal rating, SETVI (SETVI (Setaria viridis) [12]; rate 0.0620 kg/ha): 9.0
- Postemergence herbicidal rating, ZEAMX (ZEAMX (Corn, Field); rate 0.0320 kg/ha): 6.0
- Postemergence herbicidal rating, ZEAMX (ZEAMX (Corn, Field); rate 0.0620 kg/ha): 6.0
- IPOHE preemergence herbicidal rating ([13]; Rate 0.0620 kg/ha): 7.0
- IPOHE preemergence herbicidal rating ([13]; Rate 0.1250 kg/ha): 8.0
- IPOHE preemergence herbicidal rating ([13]; Rate 0.2500 kg/ha): 7.0
- Postemergence herbicidal rating, IPOHE ([14]; rate 0.0320 kg/ha): 9.0
- Postemergence herbicidal rating, IPOHE ([14]; rate 0.0620 kg/ha): 9.0
- Postemergence herbicidal rating, ECHCG ([15]; rate 0.0320 kg/ha): 4.0
- Postemergence herbicidal rating, ECHCG ([15]; rate 0.0620 kg/ha): 4.0
- Postemergence herbicidal rating, GLXMAW ([16]; rate 0.0320 kg/ha): 9.0
- Postemergence herbicidal rating, GLXMAW ([16]; rate 0.0620 kg/ha): 9.0
- herbicidal rating, ECHORC ([17]; rate 0.0080 kg/ha): 3.0
- herbicidal rating, ECHORC ([17]; rate 0.0320 kg/ha): 9.0
- herbicidal rating, ECHORC ([17]; rate 0.1250 kg/ha): 9.0
